Legend:
[1] = tested on: Del19/T790M/C797S EGFR; experiment: EGFR degradation HTRF assay in H1975-clone #28 (DTC) cells; assay type: cell-based; conditions: H1975 # 28 DTC (Del19/T790M/C797S), 16h treatment; for DC50: HTRF; for Dmax (%): maximum percentage of degradation
Procedure, shortened: (§1)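 DC50 from a four-parameter fit of HTRF signal. H1975 mutant-EGFR clones with endogenous EGFR knocked out; 16 h treatment, 10 uM top, 5-fold × 8.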

[2] = molecular target: T1, L858R/T790M/C797S EGFR (Homo sapiens, UniProt P00533, C797S/L858R/T790M); experiment: EGFR degradation HTRF assay in H1975-clone #25 (LTC) cells; assay type: cell-based; conditions: 16h treatment; for DC50: H1975 # 25-LTC (L858R/T790M/C797S), HTRF; for Dmax: NCI-H1975, H1975 # 25-LTC (L858R/T790M/C797S), maximum percentage of degradation
T1 construct: expressed in transfected cells; host or cells: H1975 clone #25 (lentiviral over-expression, endogenous EGFR knocked out by sgRNA)
Procedure, shortened: as §1

T1 sequence (P00533 25-1210 T790M/C797S/L858R): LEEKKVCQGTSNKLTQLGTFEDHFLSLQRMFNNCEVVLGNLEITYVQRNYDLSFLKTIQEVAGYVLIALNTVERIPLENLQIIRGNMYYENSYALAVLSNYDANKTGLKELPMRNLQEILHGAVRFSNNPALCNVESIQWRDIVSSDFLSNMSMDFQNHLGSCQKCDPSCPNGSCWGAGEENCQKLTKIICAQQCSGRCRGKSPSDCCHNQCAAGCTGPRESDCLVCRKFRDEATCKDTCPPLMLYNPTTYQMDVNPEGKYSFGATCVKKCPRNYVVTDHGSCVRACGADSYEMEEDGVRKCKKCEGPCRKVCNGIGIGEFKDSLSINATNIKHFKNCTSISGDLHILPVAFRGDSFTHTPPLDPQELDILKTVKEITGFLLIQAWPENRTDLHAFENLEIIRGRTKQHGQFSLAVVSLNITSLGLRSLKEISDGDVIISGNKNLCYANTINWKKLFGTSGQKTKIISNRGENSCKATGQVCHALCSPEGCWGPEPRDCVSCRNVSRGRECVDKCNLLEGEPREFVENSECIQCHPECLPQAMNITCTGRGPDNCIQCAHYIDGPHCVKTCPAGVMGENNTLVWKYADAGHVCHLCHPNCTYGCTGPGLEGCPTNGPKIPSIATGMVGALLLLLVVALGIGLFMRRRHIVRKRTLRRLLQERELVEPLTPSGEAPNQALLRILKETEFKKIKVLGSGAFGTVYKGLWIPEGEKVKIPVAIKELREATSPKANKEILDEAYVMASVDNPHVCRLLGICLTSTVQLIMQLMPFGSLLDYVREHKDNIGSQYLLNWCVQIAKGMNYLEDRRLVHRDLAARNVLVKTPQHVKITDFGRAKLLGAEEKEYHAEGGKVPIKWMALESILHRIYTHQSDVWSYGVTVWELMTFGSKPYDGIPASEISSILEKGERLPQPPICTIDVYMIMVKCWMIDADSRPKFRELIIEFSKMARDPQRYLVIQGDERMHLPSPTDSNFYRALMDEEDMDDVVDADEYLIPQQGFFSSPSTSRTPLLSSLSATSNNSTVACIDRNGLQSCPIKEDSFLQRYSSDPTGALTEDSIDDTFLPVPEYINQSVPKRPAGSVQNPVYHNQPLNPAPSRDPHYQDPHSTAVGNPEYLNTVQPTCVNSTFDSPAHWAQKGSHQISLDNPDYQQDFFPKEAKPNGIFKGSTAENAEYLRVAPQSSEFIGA

| DC50 [1] | DC50 [2] | Dmax [2] | SMILES | Dmax (%) [1] |
| --- | --- | --- | --- | --- |
| 0.606 nM | 0.881 nM | 90.9% | Cc1cc2cc(n1)-c1cnn(C)c1OCCC[C@@H](C)CN1/C(=N/C2=O)Nc2ccc(N3CCN(CC4CN(c5cc(F)c([C@H]6CCC(=O)NC6=O)c(F)c5)C4)[C@H](CO)C3)cc21 [Example 451, (R)-3-(2,6-difluoro-4-(3-(((S)-2-(hydroxymethyl)-4-((R,E)-1^1,2^6,7-trimethyl-3-oxo-5^2,5^3-dihydro-1^1H,5^1H-11-oxa-4-aza-5(2,1)-benzo[d]imidazola-2(2,4)-pyridina-1(4,5)-pyrazolacycloundecaphane-5^6-yl)piperazin-1-yl)methyl)azetidin-1-yl)phenyl)piperidine-2,6-dione] | 81.53% |
| 1.29 nM | 0.98 nM | 78.5% | Cc1cc2cc(n1)-c1cnn(C)c1OCCC[C@@H](C)CN1/C(=N/C2=O)Nc2ccc(N3CCN(C4CCN(c5cc(F)c([C@H]6CCC(=O)NC6=O)c(F)c5)CC4)[C@@H](CC#N)C3)cc21 [Example 452, 2-((S)-1-(1-(4-((R)-2,6-dioxopiperidin-3-yl)-3,5-difluorophenyl)piperidin-4-yl)-4-((R,E)-1^1,2^6,7-trimethyl-3-oxo-5^2,5^3-dihydro-1^1H,5^1H-11-oxa-4-aza-5(2,1)-benzo[d]imidazola-2(2,4)-pyridina-1(4,5)-pyrazolacycloundecaphane-5^6-yl)piperazin-2-yl)acetonitrile] | 75.73% |
| 1.43 nM | 3.17 nM | 85.3% | COc1cc2cc(n1)-c1cnn(C)c1OCCC[C@@H](C)CN1/C(=N/C2=O)Nc2ccc(N3CCN(C4CCN(c5cc(F)c([C@H]6CCC(=O)NC6=O)c(F)c5)CC4)CC3)cc21 [Example 453, (R)-3-(2,6-difluoro-4-(4-(4-((R,E)-2^6-methoxy-1^1,7-dimethyl-3-oxo-5^2,5^3-dihydro-1^1H,5^1H-11-oxa-4-aza-5(2,1)-benzo[d]imidazola-2(2,4)-pyridina-1(4,5)-pyrazolacycloundecaphane-5^6-yl)piperazin-1-yl)piperidin-1-yl)phenyl)piperidine-2,6-dione] | 82.83% |
| 0.765 nM | 1.08 nM | 86% | Cc1cc2cc(n1)-c1cnn(C)c1OCCC[C@@H](C)CN1/C(=N/C2=O)Nc2ccc(N3CC(NC4CCN(c5cc(F)c([C@H]6CCC(=O)NC6=O)c(F)c5)CC4)C3)cc21 [Example 454, (R)-3-(2,6-difluoro-4-(4-((1-((R,E)-1^1,2^6,7-trimethyl-3-oxo-5^2,5^3-dihydro-1^1H,5^1H-11-oxa-4-aza-5(2,1)-benzo[d]imidazola-2(2,4)-pyridina-1(4,5)-pyrazolacycloundecaphane-5-yl)azetidin-3-yl)amino)piperidin-1-yl)phenyl)piperidine-2,6-dione] | 68.28% |
| 0.912 nM | 0.537 nM | 90.8% | Cc1cc2cc(n1)-c1cnn(C)c1OCC[C@H]1C[C@@H]1CN1/C(=N/C2=O)Nc2ccc(NC3CN(C4CCN(c5cc(F)c([C@H]6CCC(=O)NC6=O)c(F)c5)CC4)C3)cc21 [Example 455, (R)-3-(4-(4-(3-(((71S,72R,E)-1^1,2^6-dimethyl-3-oxo-5^2,5^3-dihydro-1^1H,5^1H-10-oxa-4-aza-5(2,1)-benzo[d]imidazola-2(2,4)-pyridina-1(4,5)-pyrazola-7(1,2)-cyclopropanacyclodecaphane-5^6-yl)amino)azetidin-1-yl)piperidin-1-yl)-2,6-difluorophenyl)piperidine-2,6-dione] | 85.22% |
| 0.542 nM | 0.676 nM | 93.2% | Cc1cc2cc(n1)-c1cnn(C)c1OCCC[C@@H](C)CN1/C(=N/C2=O)Nc2ccc(N3CCN(C4CCN(c5ccc(C6CCC(=O)NC6=O)nc5C)CC4)[C@@H](CC#N)C3)cc21 (stereo partly drawn) [Example 456, 2-((2S)-1-(1-(6-(2,6-dioxopiperidin-3-yl)-2-methylpyridin-3-yl)piperidin-4-yl)-4-((R,E)-1^1,2^6,7-trimethyl-3-oxo-5^2,5^3-dihydro-1^1H,5^1H-11-oxa-4-aza-5(2,1)-benzo[d]imidazola-2(2,4)-pyridina-1(4,5)-pyrazolacycloundecaphane-5^6-yl)piperazin-2-yl)acetonitrile] | 84.5% |
| 0.709 nM | 0.632 nM | 92.8% | Cc1cc2cc(n1)-c1cnn(C)c1OCC[C@H]1C[C@@H]1CN1/C(=N/C2=O)Nc2ccc(N3CCN(C[C@H]4C[C@H](Nc5cc(F)c([C@H]6CCC(=O)NC6=O)c(F)c5)C4)CC3)cc21 [Example 457, (R)-3-(4-(((1S,3R)-3-((4-((7^1S,7^2R,E)-1^1,2^6-dimethyl-3-oxo-5^2,5^3-dihydro-1^1H,5^1H-10-oxa-4-aza-5(2,1)-benzo[d]imidazola-2(2,4)-pyridina-1(4,5)-pyrazola-7(1,2)-cyclopropanacyclodecaphane-5^6-yl)piperazin-1-yl)methyl)cyclobutyl)amino)-2,6-difluorophenyl)piperidine-2,6-dione] | 91.81% |
| 0.985 nM | 0.809 nM | 92.7% | Cc1cc2cc(n1)-c1cnn(C)c1OCC[C@H]1C[C@@H]1CN1/C(=N/C2=O)Nc2ccc(N3CCC(N4CCN(c5cc(F)c([C@H]6CCC(=O)NC6=O)c(F)c5)CC4=O)CC3)cc21 [Example 458, (R)-3-(4-(4-(1-((7'S,7^2R,E)-1^1,2^6-dimethyl-3-oxo-5^2,5^3-dihydro-1^1H,5^1H-10-oxa-4-aza-5(2,1)-benzo[d]imidazola-2(2,4)-pyridina-1(4,5)-pyrazola-7(1,2)-cyclopropanacyclodecaphane-5^6-yl)piperidin-4-yl)-3-oxopiperazin-1-yl)-2,6-difluorophenyl)piperidine-2,6-dione] | 92.47% |
| 0.624 nM | 0.431 nM | 84.1% | Cc1cc2cc(n1)-c1cnn(C)c1OCCC[C@@H](C)CN1/C(=N/C2=O)Nc2ccc(NC3CN(C4CCN(c5cc(F)c([C@H]6CCC(=O)NC6=O)c(F)c5)CC4)C3)cc21 [Example 459, (R)-3-(2,6-difluoro-4-(4-(3-(((R,E)-1^1,2^6,7-trimethyl-3-oxo-5^2,5^3-dihydro-1^1H,5^1H-11-oxa-4-aza-5(2,1)-benzo[d]imidazola-2(2,4)-pyridina-1(4,5)-pyrazolacycloundecaphane-5^6-yl)amino)azetidin-1-yl)piperidin-1-yl)phenyl)piperidine-2,6-dione] | 73.95% |
| 0.702 nM | 1.64 nM | 90.6% | Cc1cc2cc(n1)-c1cnn(C)c1OCC[C@H]1C[C@@H]1CN1/C(=N/C2=O)Nc2ccc(N3CCN(CC4CN(c5cc(F)c([C@H]6CCC(=O)NC6=O)c(F)c5)C4)CC3)cc21 [Example 461, (R)-3-(4-(3-((4-((7^1S,7^2R,E)-1^1,2^6-dimethyl-3-oxo-5^2,5^3-dihydro-1^1H,5^1H-10-oxa-4-aza-5(2,1)-benzo[d]imidazola-2(2,4)-pyridina-1(4,5)-pyrazola-7(1,2)-cyclopropanacyclodecaphane-5^6-yl)piperazin-1-yl)methyl)azetidin-1-yl)-2,6-difluorophenyl)piperidine-2,6-dione] | 84.7% |
| 0.604 nM | 0.624 nM | 91.8% | Cc1cc2cc(n1)-c1cnn(C)c1OCC[C@H]1C[C@@H]1CN1/C(=N/C2=O)Nc2ccc(N3CCN(C4CCN(c5cnc(C6CCC(=O)NC6=O)cc5C)CC4)CC3)cc21 (stereo partly drawn) [Example 463, 3-(5-(4-(4-((7'S,7^2R,E)-1^1,2^6-dimethyl-3-oxo-5^2,5^3-dihydro-1^1H,5^1H-10-oxa-4-aza-5(2,1)-benzo[d]imidazola-2(2,4)-pyridina-1(4,5)-pyrazola-7(1,2)-cyclopropanacyclodecaphane-5^6-yl)piperazin-1-yl)piperidin-1-yl)-4-methylpyridin-2-yl)piperidine-2,6-dione] | 90.22% |
| 0.678 nM | 0.646 nM | 85% | Cc1cc2cc(n1)-c1cnn(C)c1OCCC[C@@H](C)CN1/C(=N/C2=O)Nc2ccc(N3CCN(C[C@H]4CCN(c5cc(F)c([C@H]6CCC(=O)NC6=O)c(F)c5)C4)CC3=O)cc21 [Example 464, (R)-3-(2,6-difluoro-4-((R)-3-((3-oxo-4-((R,E)-1^1,2^6,7-trimethyl-3-oxo-5^2,5^3-dihydro-1^1H,5^1H-11-oxa-4-aza-5(2,1)-benzo[d]imidazola-2(2,4)-pyridina-1(4,5)-pyrazolacycloundecaphane-5^6-yl)piperazin-1-yl)methyl)pyrrolidin-1-yl)phenyl)piperidine-2,6-dione] | 82.71% |
| 0.319 nM | 0.472 nM | 94.8% | Cc1cc2cc(n1)-c1cnn(C)c1OCC[C@H]1C[C@@H]1CN1/C(=N/C2=O)Nc2ccc(N3CCN(C4CCN(c5ccc(C6CCC(=O)NC6=O)nc5C)CC4)CC3)cc21 (stereo partly shown) [Example 465, 3-(5-(4-(4-((7^1S,7^2R,E)-1^1,2^6-dimethyl-3-oxo-5^2,5^3-dihydro-1^1H,5^1H-10-oxa-4-aza-5(2,1)-benzo[d]imidazola-2(2,4)-pyridina-1(4,5)-pyrazola-7(1,2)-cyclopropanacyclodecaphane-5^6-yl)piperazin-1-yl)piperidin-1-yl)-6-methylpyridin-2-yl)piperidine-2,6-dione] | 90.39% |
